Assay results published in patent US20120141440A1, “FOAMYVIRUS VECTORS AND METHODS OF USE” (priority 2009, published 2012).

System: 293T cells
Assay: Western blot of protein expressed from wild-type and human codon optimized foamyvirus gag, pol and env constructs
Assay type: cell-based
Conditions: optimized vs wild-type sequence
From the text: To assessing the amount of protein that was present in virus producing cells upon transfection of the human codon usage-optimized cDNAs in comparison with the wild-type sequences, 293T packaging cells were transfected with equal amounts of the corresponding plasmids in sequential dilutions. DNA (pUC19) from a cloning vector was utilized to keep the absolute amount of DNA transfected into 293T cells the same. For FV gag and pol, the only difference between the two plasmids was the optimization of the FV gene for human codon usage. For the PFV env gene, the human optimized ORF in a vector with slice donor and acceptor sites was compared to the non-optimzed sequence expressed without splice sites in the same vector. Additionally, the expression of optimized simian FV (SFV) env contained on pUC19, like the above comparisons, was compared to a non-optimized SFV env contained on a pCL (Promega).

For “SFV-1 env: Homo sapiens optimized Env cDNA from Simian Foamy Virus (SFV-1) (SEQ. ID. No. 4)”, the “protein levels increased through optimization of the FV genes for human codon usage” value was “increased”.
